According to US8445674B2, “Heterocyclyl compounds” (Hoffmann-La Roche Inc, priority 2009, dated 2013):

molecular target: T1, human chemokine receptor 2 isoform B (Homo sapiens, UniProt P41597); assay: Calcium mobilization assay (FLIPR, antagonist activity against MCP-1); format: cell-based; settings: Ca mobilisation assay, CHOK1-CCR2B-A5 cells, inhibition of calcium increase induced by 20 nM MCP-1
T1 construct: host or cells: CHOK1-CCR2B-A5 cells (CHO-K1)
T1 sequence (P41597 1-360 isoform P41597-2): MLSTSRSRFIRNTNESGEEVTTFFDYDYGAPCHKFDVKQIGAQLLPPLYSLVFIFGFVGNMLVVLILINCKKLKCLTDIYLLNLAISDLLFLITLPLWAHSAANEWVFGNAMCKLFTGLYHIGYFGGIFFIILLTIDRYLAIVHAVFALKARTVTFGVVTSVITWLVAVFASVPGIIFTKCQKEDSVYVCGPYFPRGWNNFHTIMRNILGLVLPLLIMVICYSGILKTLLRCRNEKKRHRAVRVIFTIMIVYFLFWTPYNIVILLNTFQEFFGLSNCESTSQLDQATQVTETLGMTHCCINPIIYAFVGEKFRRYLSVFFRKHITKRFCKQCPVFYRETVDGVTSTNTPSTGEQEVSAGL
Experimental: Calcium Mobilization Assay
CHOK1-CCR2B-A5 cells (from Euroscreen) stably overexpressing the human chemokine receptor 2 isoform B were cultured in Nutrient Hams F12 medium supplemented with 5% FBS, 100 U/ml penicillin, 100 μg/ml streptomycin, 400 μg/ml G418 and 5 μg/ml puromycin.
For the assay cells were grown overnight in 384-well black clear flat bottom polystyrene plates (Costar) at 37° C. at 5% CO2. After washing with DMEM, 20 mM Hepes, 2.5 mM probenecid, 0.1% BSA (DMEM assay buffer) cells were loaded with 4 μM Fluo-4 in the same DMEM assay buffer for 2 hours at 30° C. Excess dye was removed and cells were washed with DMEM assay buffer. 384-well compound plates were prepared with DMEM assay buffer/0.5% DMSO with or without various concentrations of test compounds. Usually compounds were tested for agonist and antagonist activity.
Test compounds were added to the assay plate and agonist activity was monitored as fluorescence for 80 seconds with a FLIPR (488 nm excitation; 510-570 nm emission; Molecular Devices). After 20-30 min. of incubation at 30° C., 20 nM MCP-1 (R&D; Roche) was added and fluorescence was monitored again for 80 seconds. Increases in intracellular calcium are reported as maximum fluorescence after agonist exposure minus basal fluorescence before exposure. Antagonist activity is indicated as inhibitor concentration required for 50% inhibition of specific calcium increases.

Row | IC50 [nM] | SMILES
1 | 3860 | C[C@H]1C(=O)N(CCC(=O)N2CC[C@H](F)[C@@H](O)C2)CCN1C(=O)Nc1ccc(Cl)c(Cl)c1 (mixture of isomers) [Example 23, (S)-4-[3-((3SR,4SR)-4-Fluoro-3-hydroxy-piperidin-1-yl)-3-oxo-propyl]-2-methyl-3-oxo-piperazine-1-carboxylic acid (3,4-dichloro-phenyl)-amide]
2 | 3200 | C[C@H]1C(=O)N(CCCC(=O)N2CCCC(O)C2)CCN1C(=O)Nc1cccc(Cl)c1 (mixture of isomers) [Example 112, (S)-4-[4-((RS)-3-Hydroxy-piperidin-1-yl)-4-oxo-butyl]-2-methyl-3-oxo-piperazine-1-carboxylic acid (3-chloro-phenyl)-amide]
3 | 1360 | C[C@H]1C(=O)N(CCCC(=O)N2CC[C@H](F)[C@@H](O)C2)CCN1C(=O)Nc1cccc(Cl)c1 (mixture of isomers) [Example 115, (S)-4-[4-((3SR,4SR)-4-Fluoro-3-hydroxy-piperidin-1-yl)-4-oxo-butyl]-2-methyl-3-oxo-piperazine-1-carboxylic acid (3-chloro-phenyl)-amide]
4 | 386 | C[C@H]1C(=O)N(CCCC(=O)N2CCC3(CC3)[C@H](O)C2)C(C(=O)O)CN1C(=O)Nc1ccc(Cl)c(Cl)c1 (mixture of isomers) [Example 120, (2RS,5S)-4-(3,4-Dichloro-phenylcarbamoyl)-1-[4-((S)-4-hydroxy-6-aza-spiro[2.5]oct-6-yl)-4-oxo-butyl]-5-methyl-6-oxo-piperazine-2-carboxylic acid]

More lines, now with the values behind:

Row | SMILES | IC50 [nM]
5 | C[C@H]1C(=O)N(CCC(=O)N2CC[C@](C)(CO)[C@H](O)C2)CCN1C(=O)Nc1ccc(Cl)c(Cl)c1 (mixture of isomers) [Example 21, (S)-4-[3-((3SR,4RS)-3-Hydroxy-4-hydroxymethyl-4-methyl-piperidin-1-yl)-3-oxo-propyl]-2-methyl-3-oxo-piperazine-1-carboxylic acid (3,4-dichloro-phenyl)-amide] | 844
6 | O=C(/C=C/c1ccc(Cl)c(Cl)c1)N1CCC(=O)N(CCC(=O)N2CC[C@H](O)[C@H](O)C2)CC1 (racemic) [Example 2, 1-[(E)-3-(3,4-Dichloro-phenyl)-acryloyl]-4-[3-((3RS,4SR)-3,4-dihydroxy-piperidin-1-yl)-3-oxo-propyl]-[1,4]diazepan-5-one] | 1970
7 | CN(C)C(=O)C(CCO)N1CCN(C(=O)/C=C/c2ccc(Cl)c(Cl)c2)CCC1=O (racemic) [Example 3, (rac)-2-{4-[(E)-3-(3,4-Dichloro-phenyl)-acryloyl]-7-oxo-[1,4]diazepan-1-yl}-4-hydroxy-N,N-dimethyl-butyramide] | 563
8 | O=C(/C=C/c1ccc(Cl)c(Cl)c1)N1CCC(=O)N(C(CCO)C(=O)N2CCCC2)CC1 (racemic) [Example 5, rac-(1-[(E)-3-(3,4-Dichloro-phenyl)-acryloyl]-4-[3-hydroxy-1-(pyrrolidine-1-carbonyl)-propyl]-[1,4]diazepan-5-one)] | 583
9 | O=C(/C=C/c1ccc(Cl)c(Cl)c1)N1CCC(=O)N(C(CO)CC(=O)N2CCCCC2)CC1 (racemic) [Example 6, rac-(1-[(E)-3-(3,4-Dichloro-phenyl)-acryloyl]-4-(1-hydroxymethyl-3-oxo-3-piperidin-1-yl-propyl)-[1,4]diazepan-5-one)] | 2020
10 | COC(=O)C(CC(=O)N(C)C)N1CCN(C(=O)/C=C/c2ccc(Cl)c(Cl)c2)CCC1=O (racemic) [Example 8, rac-(2-{4-[(E)-3-(3,4-Dichloro-phenyl)-acryloyl]-7-oxo-[1,4]diazepan-1-yl}-N,N-dimethyl-succinamic acid methyl ester)] | 863
11 | COC(=O)C(CC(=O)N(C)C)N1CCN(C(=O)/C=C/c2cccc(Cl)c2)CCC1=O (racemic) [Example 12, rac-(2-{4-[(E)-3-(3-Chloro-phenyl)-acryloyl]-7-oxo-[1,4]diazepan-1-yl}-N,N-dimethyl-succinamic acid methyl ester)] | 1940
